This note sets out measurements from paper PMC11013444, “3-NAntC: A Potent Crotoxin B-Derived Peptide against the Triple-Negative MDA-MB-231 Breast Cancer Cell Line” (Molecules, 2024).

For series [1], the system named is HDFa cells. The series is described as follows: cells. It counts as cell-based, human. The method, then:
(§1) MCF-7 (Luminal breast cancer), MDA-MB-231 (TNBC), and MCF10A (non-tumor mammary gland epithelial cells) were purchased from the Rio de Janeiro Cell Bank (BCRJ, Rio de Janeiro, RJ, Brazil). HMEC (Primary Mammary Epithelial Cells) and HDFa (Human Dermal Fibroblasts) cell lines were purchased from Gibco (Waltham, MA, USA). MCF-7 and MDA-MB-231 were cultured in an RPMI 1640 medium supplemented with 10% heat-inactivated FBS, 1% glutamine, and 1% antibiotic/antimycotic solution. MCF10A and HMEC were cultured in MEBM medium supplemented with 100 ng/mL cholera toxin, 2.5 mM L-glutamine, 5% horse serum, 10 µg/mL human insulin, 0.5 µg/mL hydrocortisone, and 10 ng/mL EGF. All cells used in this study were incubated at 37 °C under 5% CO2 and checked for authenticity through polymerase chain reaction (PCR) followed by fragment analysis of eight highly polymorphic microsatellite loci (short tandem repeat—STR) plus gender determination with score ≥ 80%.
(§2) Stock solutions of Peptides 1 to 12, doxorubicin, and cisplatin were prepared in PBS (1X). Doxorubicin and cisplatin were stored at −20 °C and the peptide solutions were freshly prepared before each experiment. The final concentration of PBS (1X) in the culture medium was lower than 0.02%. All the negative controls contained this vehicle in the same culturing conditions as previously described.
(§3) Cell viability assay was conducted using the MTT method. For treatments lasting 24 h, the cells were seeded at the density of 2 × 10^4 cells/well into 96-well sterile plates, and for treatments lasting 48 or 72 h, the cell density was 1 × 10^4 cells/well. The following day, cells were treated by applying 200 μL/well of each agent (Peptides 1 to 12, doxorubicin, or cisplatin) at the desired concentration and incubated for the duration of the treatment. Afterward, cells were incubated with 20 μL/well of an MTT solution (5 mg/mL) for 2.5 h. Then, formazan salts were solubilized with 200 μL of DMSO: isopropanol (3:1) and agitated for at least 15 min at room temperature. The absorbance was measured at 570 nm with a spectrophotometer (Molecular devices Spectra Max Plus 384—San Jose, CA, USA), and relative cell viability was calculated. To evaluate the mechanism of cell death, cell cultures were treated with peptides in the presence or absence of 3-methyladenine (3-MA) ([…]), which is an autophagy inhibitor [37]. After treatment, the MTT assay was carried out as previously described.

The subject of series [2] is MDA-MB-231 cells. The experiment in a line: cells. It counts as cell-based, human. The conditions noted are these: for IC50: Homo sapiens, MDA-MB-231, MTT, range 0.2–2.0 µg/mL, Figure 4, read-out: IC50 (cell viability). The protocol: as §1, §2, §3
Series [3] deals with HMEC cells. It counts as cell-based, human. The conditions noted are these: 72 h, 1 µg/mL. The protocol: as §1, §2, §3
The subject of series [4] is MCF-7 cells. The class given is cell-based, human. The conditions noted are these: for cell viability: 1 µg/mL. The method, then: as §1, §2, §3
Series [5] has as its system MCF10A cells. The class given is cell-based, human. The method, then:
as §1, §2, §3

Series [6] deals with MDA-MB-231 cells. The experiment in a line: Cell proliferation assay (BrdU incorporation) in MDA-MB-231. The conditions noted are these: for IC50 (proliferation): range 0.2–1.0 µg/mL. The class given is cell-based, human. The protocol:
(§4) Cell proliferation was assessed with the BrdU method using the Cell Proliferation ELISA, BrdU (colorimetric) kit from Roche (Basel, Switzerland). Cell seeding and treatments were carried out as presented in Section 4.3. BrdU-labeling (20 μL/well) was added and incubated for 2.5 h. Then, ELISA was performed with an anti-BrdU-POD antibody, followed by washing and substrate solutions. The substrate was then developed for 15 min and the reaction was stopped with HCl (6M). The absorbance was measured at 495 nm with a spectrophotometer (Molecular devices Spectra Max Plus 384—San Jose, CA, USA), and the relative cell proliferation was calculated.
Background: Dividing cells build labelled thymidine or BrdU into new DNA.

The test system of series [7] is HDFa cells. The experiment in a line: Cell proliferation assay (BrdU incorporation) in HDFa. The class given is cell-based, human. The conditions noted are these: 72 hours, range 0.2–1.0 µg/mL. The method, then: as §4
Series [8] has as its system MDA-MB-231 cells. The experiment in a line: LDH release assay. The class given is cell-based, human. The conditions noted are these: 0–1.0 µg/mL. The method, then: The CyQUANT LDH Cytotoxicity Assay (Thermo Fisher, Waltham, MA, USA) was employed to determine LDH release as a measure of plasma membrane damage, an important indicator of necrosis and pyroptosis. […] Cell seeding and treatments proceeded as presented in Section 4.3. After treatment incubation, 20 μL of supernatant was transferred to an EIA/RIA plate. The Reaction Mixture (20 μL/well) was added and incubated at room temperature for 30 min in the dark. Afterward, 60 μL/well of the Stop Solution was added and the absorbance of the reaction mixtures was quantified at both 490 nm and 680 nm with a spectrophotometer (Molecular devices Spectra Max Plus 384—San Jose, CA, USA). The absorbance at 680 nm was subtracted from the value at 490 nm, and then relative LDH release was calculated.
In general terms: Release of lactate dehydrogenase indicates damage to the cell membrane.

The subject of series [9] is zebrafish embryos. The experiment in a line: In vivo zebrafish embryo toxicity study. The method, then:
Transgenic Tg(fli1:EGFP)^y1 zebrafish embryos were raised at 28 °C for 48 h in E3 embryo medium 0.2 mM 1-Phenyl-2-Thiourea (PTU). […] Zebrafish embryos obtained at 48 h post fertilization (hpf), n = 20 embryos/group, were subcutaneously injected with the 3-NAntC peptide at 0.0015, 0.015, 0.15, 75, and 150 mg/mL diluted in E3 embryo medium containing 0.003% 1-phenyl-2-thiourea (PTU) and the embryos were maintained at 28.5 °C. Pictures were taken after 24, 48, and 72 h of peptide exposure and the percentage of live animals, as well as the percentage of live animals with malformations, were visually analyzed.

≈ marks a conversion by molar mass, not a printed value. Entries after “also recorded” stand apart in the source; their conditions may differ. Where two headings read alike, the source gives them in different places. Where no end group is shown, it is not given here.

For orientation: IC50 means the point on the concentration scale where inhibition reaches its midpoint. `COc1cccc2c1C(=O)c1c(O)c3c(c(O)c1C2=O)C[C@@](O)(C(=O)CO)C[C@@H]3O[C@H]1C[C@H](N)[C@H](O)[C@H](C)O1` [Doxorubicin, doxorubicin, reference compound]: the IC50 in series [1] (Homo sapiens, HDFa, 24 hours, MTT, range 0.2–2.0 µg/mL, Figure 4, read-out: IC50 (cell viability)) was determined as 1.12 µg/mL (≈ 2.06 µM); in [2] (48 hours) it was 0.21 µg/mL (≈ 0.386 µM); in series [2] (72 hours), 0.17 µg/mL (≈ 0.313 µM).
Broadly, the cell viability is a read-out of living cells in per cent, often relative to untreated cells. Low readings indicate a greater loss of cells, high ones better survival. Consider `CC[C@H](C)[C@H](NC(=O)[C@H](CCSC)NC(=O)[C@H](CCCCN)NC(=O)[C@H](CC(N)=O)NC(=O)[C@H](Cc1ccccc1)NC(=O)[C@H](CCC(N)=O)NC(=O)[C@H](CC(C)C)NC(=O)[C@H](CC(C)C)NC(=O)[C@@H](N)Cc1c[nH]cn1)C(=O)N[C@@H](CCCCN)C(=O)N[C@@H](Cc1ccccc1)C(=O)N[C@@H](CCC(=O)O)C(=O)N[C@H](C(=O)N[C@@H](CCCNC(=N)N)C(=O)N[C@@H](CCCCN)C(=O)N[C@@H](CC(N)=O)C(=O)N[C@@H](C)C(=O)N[C@H](C(=O)N1CCC[C@H]1C(=O)N[C@@H](Cc1ccccc1)C(=O)O)[C@@H](C)CC)[C@@H](C)O` [Peptide 1], for which the cell viability in series [2] (24 h, 2.5 µg/mL) is 94.4 ± 4.6%; in series [2] (48 h, 2.5 µg/mL), 90.7 ± 3.0%.
Consider `CSCC[C@H](N)C(=O)N[C@@H](Cc1ccccc1)C(=O)N[C@@H](Cc1ccc(O)cc1)C(=O)N1CCC[C@H]1C(=O)N[C@@H](CC(=O)O)C(=O)N[C@@H](CO)C(=O)N[C@@H](CCCNC(=N)N)C(=O)N[C@@H](CS)C(=O)N[C@@H](CCCNC(=N)N)C(=O)NCC(=O)N1CCC[C@H]1C(=O)N[C@@H](CO)C(=O)N[C@@H](CCC(=O)O)C(=O)N[C@H](C(=O)O)[C@@H](C)O` [Peptide 3-NAntC], for which the “IC50 (cell viability)” value in [1] (72 h) was > 2 µg/mL; in [2] (48 h), 1.44 µg/mL (≈ 0.875 µM); in series [2] (72 h), 0.55 µg/mL (≈ 0.334 µM); in series [4] (24 h), 2.31 µg/mL (≈ 1.4 µM); in series [4] (48 h), 1.49 µg/mL (≈ 0.905 µM); in series [4] (72 h), 1.49 µg/mL (≈ 0.905 µM). Besides, the “IC50 (cell viability)” value in [5] (48 h) was > 20 µg/mL. Also, the cellular viability result in series [1] (72 h, 1 µg/mL) is reported as “higher than 80%”. In addition, the cell viability in [2] (24 h, 0.8 µg/mL) is listed as 77.5 ± 15.0%; in series [2] (48 h, 0.8 µg/mL) it was 60.8 ± 17.9%; in series [2] (48 h, 1 µg/mL), 64.6 ± 14.5%; in [2] (72 h, 1 µg/mL) it was 49.0 ± 17.5%; in series [3], 98.2 ± 13.8%; in series [4] (48 h) it was 54.7 ± 15.5%. For the same compound, the cell viability worked out at 62.9 ± 26.0% in series [4] (72 h); 93.4 ± 7.4% in series [5] (24 h, 2.5 µg/mL); 80.5 ± 5.3% in series [5] (48 h, 2.5 µg/mL); 65.9 ± 10.3% in series [5] (48 h, 20 µg/mL). Further, the maximum proliferation inhibition in series [6] (0.6 µg/mL, 48 h, mean ± SEM) is 71.1 ± 27.1%. The “IC50 (proliferation)” value in [6] (24h) was 0.46 µg/mL (≈ 0.279 µM); in series [6] (48h) it was 0.46 µg/mL (≈ 0.279 µM); in [6] (72h), 0.37 µg/mL (≈ 0.225 µM); in series [7], > 1 µg/mL. The LDH release entry in [8] (24 and 48 h treatments) is listed as “did not consistently increase LDH release”; in series [8] (72 h) it was “increase in LDH release”. In series [9] (150 mg/mL, after 48 and 72 h of treatment, n = 20 embryos/group), this compound registered a lethality of 45%. For the same compound, the “surviving embryos exhibiting malformations” value in series [9] (150 mg/mL, n = 20 embryos/group) is listed as 50–60%. The “lethality and non-lethal events (malformations)” value in series [9] (1.5 to 150 µg/mL and 75 mg/mL, embryos 48 hpf, n = 20 embryos/group, 24, 48, 72 h) is “no lethal effects; also recorded: did not show lethality or significant non-lethal events (malformations)”. Moreover, the “LD50 (dose that kills 50% of the embryos)” value in series [9] (doses up to 150 mg/mL) is “could not be determined”.
AIPFYAFY [Peptide 2]: the “IC50 (cell viability)” value in series [2] (24 h), in [2] (48 h) and in series [5] (48 h) was > 20 µg/mL throughout. The cell viability was determined as 81.6 ± 5.0% in series [2] (24 h, 2.5 µg/mL); 85.0 ± 7.9% in [2] (48 h, 2.5 µg/mL); 85.7 ± 11.2% in series [5] (48 h, 2.5 µg/mL).
